Measurements: US12123009B2, “Methods and compositions for PPO herbicide tolerance in plants” (Monsanto Technology LLC, priority 2015, dated 2024)

What was measured:
[1] = system: maize, non-transgenic or F1 containing H_N10 (SEQ ID NO: 4); experiment: Efficacy field trial of F1 maize; format: in vivo
Method: This F1 population was segregating (50% hemizygous and 50% null) and selection for transgenic plants was not conducted prior to injury ratings. The overall average injury ratings for such a population are expected to be higher than a homogenous transgenic population since it is difficult to discern non-transgenic plants from transgenic plants. The trials were conducted at two locations with two replicates and 3 treatments per construct. Non-transgenic maize plants were used as a negative control. The herbicide application treatments were as follows: Treatment 1 was 0.036 lb ai/acre S-3100 applied at V2 followed by (fb) V4 fb V8; Treatment 2: was 0.072 lb ai/acre S-3100 applied at V2 fb V4 fb V8; Treatment 3: was 0.144 lb ai/acre S-3100 applied at V2 fb V4 fb V8. Crop Injury Percent ratings were assessed at the V2 growth stage (CIPV2) and at the V4 growth stage (CIPV4) at 5 to 7 days after treatment (the error V2 and error V4 are half of the least significant difference (LSD)). The crop injury ratings were combined for both locations.

[2] = target: Soybean (Glycine max) protoporphyrinogen oxidase (PPO), wild type; experiment: PPO enzyme assay (plastid extract); format: biochemical; conditions: 3 μM protogen; pH 7.4, 30° C.; read-out: S-3100 IC50
[3] = system: soybean, non-transgenic or expressing H_N10 (SEQ ID NO: 4); experiment: Green house S-3100 efficacy screen of R1 soybean; format: in vivo
Method: Single-copy transgenic R1 soybean plants in the greenhouse were sprayed with one of three herbicide application rates: Treatment 1 was 5 grams ai/ha S-3100 applied at V4 followed by (fb) R1; Treatment 2 was 10 grams ai/ha S-3100 applied at V4 fb R1; Treatment 3 was 30 grams ai/ha S-3100 applied at V4 fb R1. Crop Injury Percent at V2 (CIPV2) ratings were assessed ten days after treatment. Non-transgenic plants had average injury ratings of 89% to 100% and were not available for rating at the R1 growth stage.

[4] = target: H_N110 (SEQ ID NO: 10), microbial HemG protoporphyrinogen oxidase; experiment: PPO enzyme assay (bacterial extract); conditions: read-out: S-3100 IC50; 3 μM protogen; pH 7.4, 37° C.
[5] = system: soybean plantlets; experiment: High-throughput soybean screening for herbicide tolerance (plantlets); format: in vivo, soybean (A3555); set-up: key: 0 for poor tolerance, high damage, low green coloration; 1 for some tolerance, average damage, moderate green coloration; 2 for good tolerance, low damage, high green coloration; conditions: S-3100 spray five weeks post-transformation, scored day four
How it was run: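 Soybean embryo explants (A3555) transformed via A. tumefaciens; at five weeks, plantlets sprayed with two passes of S-3100 (0.3 g in 5.0 mL crop oil concentrate plus 495 mL water). After four days with at least 15 h light daily, green coloration versus damage scored 0 (poor), 1 (some) or 2 (good tolerance).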

[6] = H_N10, construct 6, Trt 1, 0.036 lb ai/acre
[7] = H_N10, construct 6, Trt 2, 0.072 lb ai/acre
[8] = H_N10, construct 6, Trt 3, 0.144 lb ai/acre
[9] = H_N10, construct 16, Trt 1, 0.036 lb ai/acre
[10] = H_N10, construct 16, Trt 2, 0.072 lb ai/acre
[11] = H_N10, construct 16, Trt 3, 0.144 lb ai/acre
[12] = wildtype, Trt 1, 0.036 lb ai/acre V2 fb V4 fb V8
[13] = wildtype, Trt 2, 0.072 lb ai/acre V2 fb V4 fb V8
[14] = wildtype, Trt 3, 0.144 lb ai/acre V2 fb V4 fb V8

CCOC(=O)COc1ncccc1Oc1cc(-n2c(=O)cc(C(F)(F)F)n(C)c2=O)c(F)cc1Cl [S-3100, ethyl [3-2-chloro-4-fluoro-5-(1-methyl-6-trifluoromethyl-2,4-dioxo-1,2,3,4-tetrahydropyrimidin-3-yl)phenoxy]-2-pyridyloxylacetate]
CIPV2 (Crop Injury Percent, V2) [1, 6]: 37.5% | CIPV4 (Crop Injury Percent, V4) [1, 6]: 0% | CIPV2 (Crop Injury Percent, V2) [1, 7]: 37.5% | CIPV4 (Crop Injury Percent, V4) [1, 7]: 0% | CIPV2 (Crop Injury Percent, V2) [1, 8]: 50% | CIPV4 (Crop Injury Percent, V4) [1, 8]: 0% | CIPV2 (Crop Injury Percent, V2) [1, 9]: 96.3% | CIPV4 (Crop Injury Percent, V4) [1, 9]: 98.5% | CIPV2 (Crop Injury Percent, V2) [1, 10]: 99.5% | CIPV4 (Crop Injury Percent, V4) [1, 10]: 99.5% | CIPV2 (Crop Injury Percent, V2) [1, 11]: 99.5% | CIPV4 (Crop Injury Percent, V4) [1, 11]: 99.5% | injury following V2 and V4 application ([1]; non-transgenic and construct 16, all three treatments): 94.6-99.5% | CIPV2 (Crop Injury Percent, V2) [1, 12]: 94.6% | CIPV4 (Crop Injury Percent, V4) [1, 12]: 99% | CIPV2 (Crop Injury Percent, V2) [1, 13]: 99.5% | CIPV4 (Crop Injury Percent, V4) [1, 13]: 99.5% | CIPV2 (Crop Injury Percent, V2) [1, 14]: 99.5% | CIPV4 (Crop Injury Percent, V4) [1, 14]: 99.5% | IC50 [2]: 4 nM | % Injury R1 stage ([3]; H_N10, construct 1, 5 g/ha): 3% | % Injury V4 stage ([3]; H_N10, construct 1, 5 g/ha): 4.2% | % Injury R1 stage ([3]; H_N10, construct 1, 10 g/ha): 6.5% | % Injury V4 stage ([3]; H_N10, construct 1, 10 g/ha): 7.8% | % Injury R1 stage ([3]; H_N10, construct 1, 30 g/ha): 15.7% | % Injury V4 stage ([3]; H_N10, construct 1, 30 g/ha): 9.4% | % Injury V4 stage ([3]; Nontransgenic, 5 g/ha): 89% | % Injury V4 stage ([3]; Nontransgenic, 10 g/ha): 98% | % Injury V4 stage ([3]; Nontransgenic, 30 g/ha): 100% | IC50 [4]: > 100000 nM

B1: H_N90: microbial HemG protoporphyrinogen oxidase, SEQ ID NO:1 (SEQ ID NO:11 lacking start methionine; variants 18, 19) (protein, listed as Enterobacter cloacae)
chain: MKALVLYSTRDGQTHAIASYIASCMKEKAECDVIDLTHGEHVNLTQYDQVLIGASIRYGHFNAVLDKFIKRNVDQLNNMPSAFFCVNLTARKPEKRTPQTNPYVRKFLLATPWQPALCGVFAGALRYPRYRWIDKVMIQLIMRMTGGETDTSKEVEYTDWEQVKKFAEDFAKLSYKKAL
coloration score ([5]; TP9): 1 | coloration score ([5]; TP10): 2 | coloration score ([5]; TP11): 2 | coloration score ([5]; TP12): 2 | coloration score ([5]; TP13): 2 | coloration score ([5]; TP14): 2 | coloration score ([5]; TP15): 2 | coloration score ([5]; TP16): 1 | coloration score ([5]; TP17): 2 | coloration score ([5]; TP18): 2 | coloration score ([5]; TP19): 1 | coloration score ([5]; TP20): 2 | coloration score ([5]; TP21): 1 | coloration score ([5]; TP22): 2 | coloration score ([5]; TP23): 1 | coloration score ([5]; TP24): 1 | coloration score ([5]; TP25): 1 | coloration score ([5]; TP26): 0 | coloration score ([5]; TP27): 1 | coloration score ([5]; TP28): 2 | coloration score ([5]; TP29): 1 | coloration score ([5]; TP30): 1 | coloration score ([5]; TP31): 0 | coloration score ([5]; TP32): 0 | coloration score ([5]; TP33): 2 | coloration score ([5]; TP34): 2 | coloration score ([5]; TP35): 1 | coloration score ([5]; TP36): 2
